From patent US11986489B2, “Method of treating a disease using a glycolytic dependent compound” (Ethicon, Inc., priority 2015, dated 2024)
Where a name gives a salt, the structure may show the parent alone. Read-outs that look alike come from different tables or passages of the source.

Experiments:
[1] = in vivo; cited from earlier work
[2] = WST-1 viability of NHDF cells treated with Dox with or without ORC; assay type: cell-based, Human; conditions: human, NHDF cells (normal human dermal fibroblasts), NHDF cells, 16-18 hours, WST-1; for cytotoxicity at 5 μM: Dox 5 μM; for cytotoxicity at 25 μM: Dox 25 μM; for cytotoxicity at 50 μM: Dox 50 μM
Protocol: (§1) NU-KNIT® (ORC) patch: NU-KNIT® was cut with an 8 mm punch to form 8 mm circles of Nuknit. These circles were then cut into 4 quarters using sterile scissors (each quarter has a weight of 2.2-2.7 mg, Average 2.44 mg, n=10).
(§2) Day 1: Two 24-well plates were seeded with 15,000 NHDF cells/well using a 15,000 cells/ml suspension according to the plate layout below (representing about 20%-30% confluency of cells).
(§3) The plates were incubated overnight, for 16-18 hours, in a water jacketed 37° C. incubator with 5% CO2.
(§4) The cells at this stage were about 40%-50% confluent.
(§5) Immediately, a NuKnit® ¼ punch was added to the wells according to the plate layout.
(§6) Day 3: The untreated cells at this stage were about 60%-70% confluent. The plate's medium was decanted and replaced with 0.5 ml of Growth medium. 50 μl of WST-1 were added to each well. The plates were then incubated for an additional 4 hours.
(§7) The plates were then read with an ELISA reader at 450 nm and 650 nm Optical Density (OD). Wells containing medium with no cells were used as blank.
(§8) The results obtained by ELISA reader at 650 nm were subtracted from the results obtained at 450 nm per each well separately=sample OD.
(§9) The relative viability of the rest of the wells was calculated according to the following calculation: sample OD/untreated OD×100. The results were depicted in FIG. 2.
(§10) The following experiment was set in order to evaluate the effect of ORC on Doxorubicin activity on Normal Human Dermal Fibroblast (NHDF) cells. Doxorubicin activity will be expressed in relative cell viability compared to untreated cells. […] The final viability of the cells was evaluated with WST-1 staining. WST-1 is a Tetrazolium salts that is only cleaved to Formazan in metabolically active intact cells.

[3] = test system: Normal Human Dermal Fibroblast (NHDF) cells; experiment: as above; assay type: cell-based; conditions: for Potency increase of Dox in the presence of ORC: with ORC divided by without ORC
Protocol: as §1, §2, §3, §4, §5, §6, §7, §8, §9, §10

[4] = human, in vivo
From the text: Clinically, a half-life of a given compound is the amount of time required for the compound to fall e.g. in the circulation to half its initial administered dose i.e. how long it takes for the body to remove half of the administered dose. Typically, compounds are active for a multiple of their half-life, for example, five times the half-life can be used to describe the time period for a therapy's treatment. In the case of many therapies, this translates into days where the drug is having an effect on targeted tissues. All clinically used and approved drugs will have well described time ranges and amounts for calculating dose and therapy plans. In one embodiment, the performance of the compound in addressing the underlying pathology e.g. malignancy is adjusted in view of the presence of ORC, and/or OC that can localize the therapy at the target site during the limited time the compound is in the body and before it is being processed.
In certain embodiments a “therapeutically effective dose” refers to the median effective dose ED50, for a particular know drug. […] Mean: 1-3 hours. Typically, 5 times the elimination half-life will give the time at which point the drug has been completely eliminated from the body. For Doxorubicin this would be 5-15 hours.

[5] = with ORC (¼ Nuknit of 8 mm), read-out: With ORC relative reduction of viability (%)
[6] = without ORC, read-out: Without ORC relative reduction of viability (%)

Which “biological half-life, mean” value [1] does the source give for `COc1cccc2c1C(=O)c1c(O)c3c(c(O)c1C2=O)C[C@@](O)(C(=O)CO)C[C@@H]3O[C@H]1C[C@H](N)[C@H](O)[C@H](C)O1` [Dox, Doxorubicin hydrochloride] here?
The value was 1-3 hours.

What about the “biological half-life, triphasic, third phase” value [1] of the same molecule?
The value was 30 hours.

And the cytotoxicity at 5 μM [2, 5]?
Its cytotoxicity at 5 μM is about 55%.

What about the cytotoxicity at 5 μM [2, 6] of the same molecule?
Its cytotoxicity at 5 μM is about 30%.

What about the cytotoxicity at 25 μM [2, 5] of the same molecule?
Its cytotoxicity at 25 μM is about 74%.

And the cytotoxicity at 25 μM [2, 6]?
The cytotoxicity at 25 μM was about 40%.

What about the cytotoxicity at 50 μM [2, 5] of the same molecule?
Its cytotoxicity at 50 μM is 80%.

And the cytotoxicity at 50 μM [2, 6]?
Its cytotoxicity at 50 μM is 65%.

And the “Potency increase of Dox in the presence of ORC” value (“Potency increase of Dox” below) ([3]; Dox 5 μM)?
The value was 1.89.

And the “Potency increase of Dox” value ([3]; Dox 25 μM)?
Its value is 1.83.

What about the “Potency increase of Dox” value ([3]; Dox 50 μM) of the same molecule?
The value was 1.24.

What about the “Dox concentration at which the viability reduction is already evident” value ([3]; NHDF cells, in the absence of ORC) of the same molecule?
The value was 5.0 µM.

And the “Effect of Dox on the viability of NHDF cells” value ([3]; in the absence of ORC)?
The value was “reduces the viability of NHDF cells, in the absence of ORC in a dose dependent manner”.

What about the “time at which the drug has been completely eliminated from the body” value [4] of the same molecule?
Its value is 5 to 15 h.

Which half-life [1] does the source give for `CO[C@H]1C[C@@H]2CC[C@@H](C)[C@@](O)(O2)C(=O)C(=O)N2CCCC[C@H]2C(=O)O[C@H]([C@H](C)C[C@@H]2CC[C@@H](OCCO)[C@H](OC)C2)CC(=O)[C@H](C)/C=C(\C)[C@@H](O)[C@@H](OC)C(=O)[C@H](C)C[C@H](C)/C=C/C=C/C=C/1C` [Everolimus] here?
The half-life was “about 30 hours”.

For `Cc1ccc(Nc2nccc(N(C)c3ccc4c(C)n(C)nc4c3)n2)cc1S(N)(=O)=O` [Pazopanib], which half-life [1] is on record?
The half-life was “about 31 hours”.

With `CNC(=O)c1cc(Oc2ccc(NC(=O)Nc3ccc(Cl)c(C(F)(F)F)c3)cc2)ccn1` [Sorafenib] as the molecule, how does the half-life [1] read?
The half-life was 20 to 27 h.

Which half-life [1] does the source give for `CCN(CC)CCNC(=O)c1c(C)[nH]c(/C=C2\C(=O)Nc3ccc(F)cc32)c1C` [Sunitinib] here?
The half-life was 41 to 86 h.

Which half-life [1] does the source give for `CO[C@H]1C[C@@H]2CC[C@@H](C)[C@@](O)(O2)C(=O)C(=O)N2CCCC[C@H]2C(=O)O[C@H]([C@H](C)C[C@@H]2CC[C@@H](OC(=O)C(C)(CO)CO)[C@H](OC)C2)CC(=O)[C@H](C)/C=C(\C)[C@@H](O)[C@@H](OC)C(=O)[C@H](C)C[C@H](C)/C=C/C=C/C=C/1C` [Temsirolimus] here?
Its half-life is “about 17.3 hours”.
